Assay results reported in PubChem BioAssay (NCI).
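Cultured in 96-well plates, cells were exposed to test compound for 48 hours across five concentrations. Abbreviation: GI50, concentration required for 50% inhibition of growth. TGI denotes the concentration required for complete inhibition of growth.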 Where a SMILES comes first, the peptide text is derived from it. [ ]: non-standard residue; d: D form. The star is where a group is joined. ξ: configuration not given here. dIva = CC[C@@](C)(N)C(=O)O; Aib = CC(C)(N)C(=O)O; ξP = O=C(O)C1CCCN1; βAla = NCCC(=O)O; X5 = OCN*

Assays:
Experiment in all cases: NCI-60 cell line screen, 48 h
DU-145 prostate = tested on: DU-145 prostate
HS 578T breast = tested on: HS 578T breast
MDA-MB-435 = tested on: MDA-MB-435
NCI/ADR-RES ovarian = tested on: NCI/ADR-RES ovarian
PC-3 prostate = tested on: PC-3 prostate
T-47D breast = tested on: T-47D breast

SMILES | GI50 (DU-145 prostate) | TGI (DU-145 prostate) | GI50 (HS 578T breast) | TGI (HS 578T breast) | GI50 (MDA-MB-435) | TGI (MDA-MB-435) | GI50 (NCI/ADR-RES ovarian) | TGI (NCI/ADR-RES ovarian) | GI50 (PC-3 prostate) | TGI (PC-3 prostate) | GI50 (T-47D breast) | TGI (T-47D breast)
O=C1CC2OCC=C3CN4CCC56c7ccccc7N1C5C2C3CC46 (stereo not drawn) (tested in a mixture with another compound) | > 50 µg/mL | > 50 µg/mL | > 50 µg/mL | > 50 µg/mL | > 50 µg/mL | > 50 µg/mL | > 50 µg/mL | > 50 µg/mL | > 50 µg/mL | > 50 µg/mL | > 50 µg/mL | > 50 µg/mL
CCCC(CCC)C(=O)O | > 100 µM | > 20000 µM |  | > 20000 µM | > 100 µM | > 20000 µM | > 100 µM | > 20000 µM | > 100 µM | > 20000 µM | > 100 µM | > 20000 µM
CCCCCCCCCCCCCCCC(N)c1ccccc1 (stereo not drawn) | 1.75 µM | 3.22 µM | 2.02 µM | 4.64 µM | 1.61 µM | 3.04 µM | 1.85 µM | 3.66 µM | 1.67 µM | 3.26 µM | 1.56 µM | 3.08 µM
NC(N)=N/N=C/c1ccc(Br)cc1 | 5.5 µM | 22.1 µM | 3.33 µM | 10.2 µM | 1.07 µM | 3.81 µM | 3.15 µM | 10.6 µM | 4.57 µM | 24 µM | 5.57 µM | 23.7 µM
O=C(Nc1ccc(N2CCNCC2)cn1)c1[nH]ncc1Nc1ncnc2sc3c(c12)CCC3 | 1.6 µM | 3.06 µM | 3.38 µM | 14.6 µM | 1.13 µM | 2.67 µM | 4.75 µM | > 100 µM |  |  | 1.65 µM | 4.27 µM
COC(=O)CCc1c(/C=C2\N=C(c3ccc[nH]3)C=C2OC)[nH]c(C)c1C(=O)OCc1ccccc1 | 0.345 µM | > 55.6 µM | 0.491 µM | 3.78 µM | 0.409 µM | 2.25 µM | 0.437 µM | 3.78 µM | 0.228 µM | > 37.6 µM | 0.235 µM | 1.45 µM
CC[C@@](C)(NC(=O)[C@H](C)NC(=O)CCNC(=O)C(C)(C)NC(=O)[C@H](C)NC(=O)[C@@H]1CCCN1C(=O)[C@@](C)(CC)NC(=O)[C@H](Cc1ccccc1)NC(=O)C1CCCN1C(=O)C(C)(C)NC(=O)C1CCCN1C(=O)C(C)(C)NC(C)=O)C(=O)NCCC(=O)N[C@@H](CC(C)C)C(=O)NC(C)(C)C(=O)NCCC(=O)N[C@@H](CC(C)C)C(=O)NC(C)(C)C(=O)NC(C)(C)C(=O)N[C@@H](CC(C)C)C(=O)NCCC(=O)NCO (stereo partly drawn) (Ac-[Aib][ξP][Aib][ξP]F[dIva]PA[Aib][βAla]A[dIva][βAla]L[Aib][βAla]L[Aib][Aib]L[βAla]-X5) | 0.125 µM | 0.338 µM | 0.248 µM | 0.642 µM | 0.142 µM | 0.357 µM | 0.238 µM | 0.488 µM | 0.0765 µM | 0.264 µM | 0.0739 µM | 0.302 µM
NS(=O)(=O)c1ccc(N=Nc2c(=O)[nH]c3ccc4[nH]cccc4c23)cc1 | 0.611 µM | > 7.96 µM | 0.575 µM | > 6.85 µM | 0.553 µM | > 25 µM | > 15.8 µM | > 25 µM | 0.583 µM | > 25 µM | 0.48 µM | 1.98 µM
